Results on 20 compounds are retold here after ChEMBL document CHEMBL1149371, “A strategy for the design of selective RNA binding agents. Preparation and RRE RNA binding affinities of a neomycin-peptide nucleic acid heteroconjugate library” (Bioorg Med Chem Lett, 2006).

SMILES strings stand for the structures.

Test [1] relates to Rev responsive element (RRE) RNA. Nature of the test: Ratio of inhibition of Rev binding to Rev response element RNA in presence to absence of competitor RNA. The class given is nucleic-acid assay.
Test [2] has the same test system. The test can be described thus: Discrimination factor, Kd for tRNA/Kd for Rev response element RNA. The class given is nucleic-acid assay.
A further test concerns the target tRNA. Nature of the test: Binding affinity to tRNA.
In test [3] the target is Rev responsive element (RRE) RNA. The test can be described thus: Inhibition of Rev binding to Rev response element RNA in absence of competitor RNA. The class given is nucleic-acid assay.
The target is the same in test [4]. Nature of the test: Binding affinity to Rev response element RNA. The class given is nucleic-acid assay.
For test [5] the target is unchanged. The test can be described thus: Inhibition of Rev binding to Rev response element RNA in presence of competitor RNA. It is filed as nucleic-acid assay.

Regarding `NC[C@@H]1O[C@H](O[C@H]2[C@@H](O)[C@H](O[C@@H]3[C@@H](O)[C@H](N)C[C@H](N)[C@H]3O[C@H]3O[C@H](CN)[C@@H](O)[C@H](O)[C@H]3N)O[C@@H]2CSCCCCCCSCC(=O)NCCN(CC(=O)NCCN(CC(N)=O)C(=O)Cn2cnc3c(N)ncnc32)C(=O)Cn2cnc3c(N)ncnc32)[C@H](N)[C@@H](O)[C@@H]1O`, the figures for the Ratio in test [1] and in test [2] were 1.2 and 7.1, respectively. For the same compound, the equilibrium dissociation constant (Kd) came to 410 nM at tRNA and 58 nM in test [4]. The 50% inhibitory concentration (IC50) in test [3] stood at 55000 nM; in test [5], 68000 nM.

In test [4], `CC(=O)N(CCNC(=O)CSCCCCCCSC[C@H]1O[C@@H](O[C@@H]2[C@@H](O)[C@H](N)C[C@H](N)[C@H]2O[C@H]2O[C@H](CN)[C@@H](O)[C@H](O)[C@H]2N)[C@H](O)[C@@H]1O[C@H]1O[C@@H](CN)[C@@H](O)[C@H](O)[C@H]1N)CC(=O)NCCN(CC(N)=O)C(=O)Cn1cnc2c(O)nc(N)nc21` returned a dissociation constant (Kd) of 130 nM.

In turn, `Cc1cn(CC(=O)N(CCNC(=O)CN(CCNC(=O)CSCCCCCCSC[C@H]2O[C@@H](O[C@@H]3[C@@H](O)[C@H](N)C[C@H](N)[C@H]3O[C@H]3O[C@H](CN)[C@@H](O)[C@H](O)[C@H]3N)[C@H](O)[C@@H]2O[C@H]2O[C@@H](CN)[C@@H](O)[C@H](O)[C@H]2N)C(=O)Cn2ccc(N)nc2=O)CC(N)=O)c(=O)[nH]c1=O` yielded a Kd in test [4] of 110 nM.

In test [4], `NC[C@@H]1O[C@H](O[C@H]2[C@@H](O)[C@H](O[C@@H]3[C@@H](O)[C@H](N)C[C@H](N)[C@H]3O[C@H]3O[C@H](CN)[C@@H](O)[C@H](O)[C@H]3N)O[C@@H]2CSCCCCCCSCC(=O)NCCN(CC(=O)NCCN(CC(N)=O)C(=O)Cn2ccc(N)nc2=O)C(=O)Cn2ccc(N)nc2=O)[C@H](N)[C@@H](O)[C@@H]1O` displayed a Kd of 430 nM.

Consider `NC[C@@H]1O[C@H](O[C@H]2[C@@H](O)[C@H](O[C@@H]3[C@@H](O)[C@H](N)C[C@H](N)[C@H]3O[C@H]3O[C@H](CN)[C@@H](O)[C@H](O)[C@H]3N)O[C@@H]2CSCCCCCCSCC(=O)NCCN(CC(=O)NCCN(CC(N)=O)C(=O)Cn2cnc3c(O)nc(N)nc32)C(=O)Cn2cnc3c(N)ncnc32)[C@H](N)[C@@H](O)[C@@H]1O`, for which the Ratio in test [2] was 4.5. Besides, the equilibrium dissociation constant (Kd) is 170 nM on tRNA and 38 nM in test [4].

With `CC(=O)N(CCNC(=O)CSCCCCCCSC[C@H]1O[C@@H](O[C@@H]2[C@@H](O)[C@H](N)C[C@H](N)[C@H]2O[C@H]2O[C@H](CN)[C@@H](O)[C@H](O)[C@H]2N)[C@H](O)[C@@H]1O[C@H]1O[C@@H](CN)[C@@H](O)[C@H](O)[C@H]1N)CC(=O)NCCN(CC(N)=O)C(=O)Cn1ccc(N)nc1=O`, the affinity in test [4], expressed as Kd, was 320 nM.

Consider `Cc1cn(CC(=O)N(CCNC(=O)CN(CCNC(=O)CSCCCCCCSC[C@H]2O[C@@H](O[C@@H]3[C@@H](O)[C@H](N)C[C@H](N)[C@H]3O[C@H]3O[C@H](CN)[C@@H](O)[C@H](O)[C@H]3N)[C@H](O)[C@@H]2O[C@H]2O[C@@H](CN)[C@@H](O)[C@H](O)[C@H]2N)C(=O)Cn2cnc3c(O)nc(N)nc32)CC(N)=O)c(=O)[nH]c1=O`, for which the Ratio in test [2] was 2.4. Further, the values for the Kd (on tRNA; in test [4]) were 220 nM and 93 nM, respectively.

For the compound `Cc1cn(CC(=O)N(CCNC(=O)CSCCCCCCSC[C@H]2O[C@@H](O[C@@H]3[C@@H](O)[C@H](N)C[C@H](N)[C@H]3O[C@H]3O[C@H](CN)[C@@H](O)[C@H](O)[C@H]3N)[C@H](O)[C@@H]2O[C@H]2O[C@@H](CN)[C@@H](O)[C@H](O)[C@H]2N)CC(=O)NCCN(CC(N)=O)C(=O)Cn2cnc3c(N)ncnc32)c(=O)[nH]c1=O`, in test [2], the Ratio was determined as 3.2. The Kd at tRNA is 230 nM; in test [4], 71 nM.

As to `NC[C@@H]1O[C@H](O[C@H]2[C@@H](O)[C@H](O[C@@H]3[C@@H](O)[C@H](N)C[C@H](N)[C@H]3O[C@H]3O[C@H](CN)[C@@H](O)[C@H](O)[C@H]3N)O[C@@H]2CSCCCCCCSCC(=O)NCCN(CC(=O)NCCN(CC(N)=O)C(=O)Cn2cnc3c(O)nc(N)nc32)C(=O)Cn2ccc(N)nc2=O)[C@H](N)[C@@H](O)[C@@H]1O`, the Kd in test [4] worked out at 170 nM.

As to `NC[C@@H]1O[C@H](O[C@H]2[C@@H](O)[C@H](O[C@@H]3[C@@H](O)[C@H](N)C[C@H](N)[C@H]3O[C@H]3O[C@H](CN)[C@@H](O)[C@H](O)[C@H]3N)O[C@@H]2CSCCCCCCSCC(=O)NCCN(CC(=O)NCCN(CC(N)=O)C(=O)Cn2cnc3c(N)ncnc32)C(=O)Cn2ccc(N)nc2=O)[C@H](N)[C@@H](O)[C@@H]1O`, the Kd in test [4] is 130 nM.

On to `NC[C@@H]1O[C@H](O[C@H]2[C@@H](O)[C@H](O[C@@H]3[C@@H](O)[C@H](N)C[C@H](N)[C@H]3O[C@H]3O[C@H](CN)[C@@H](O)[C@H](O)[C@H]3N)O[C@@H]2CSCCCCCCSCC(=O)NCCN(CC(=O)NCCN(CC(N)=O)C(=O)Cn2ccc(N)nc2=O)C(=O)Cn2cnc3c(N)ncnc32)[C@H](N)[C@@H](O)[C@@H]1O`, for which, in test [2], the Ratio stood at 1.5. In addition, the Kd at tRNA worked out at 76 nM; in test [4], 51 nM.

In turn, `Cc1cn(CC(=O)N(CCNC(=O)CSCCCCCCSC[C@H]2O[C@@H](O[C@@H]3[C@@H](O)[C@H](N)C[C@H](N)[C@H]3O[C@H]3O[C@H](CN)[C@@H](O)[C@H](O)[C@H]3N)[C@H](O)[C@@H]2O[C@H]2O[C@@H](CN)[C@@H](O)[C@H](O)[C@H]2N)CC(=O)NCCN(CC(N)=O)C(=O)Cn2ccc(N)nc2=O)c(=O)[nH]c1=O` displayed a dissociation constant (Kd) in test [4] of 360 nM.

In test [4], `NC[C@@H]1O[C@H](O[C@H]2[C@@H](O)[C@H](O[C@@H]3[C@@H](O)[C@H](N)C[C@H](N)[C@H]3O[C@H]3O[C@H](CN)[C@@H](O)[C@H](O)[C@H]3N)O[C@@H]2CO)[C@H](N)[C@@H](O)[C@@H]1O` [FRAMYCETIN] returned a Kd of 180 nM.

In test [4], `Cc1cn(CC(=O)N(CCNC(=O)CN(CCNC(=O)CSCCCCCCSC[C@H]2O[C@@H](O[C@@H]3[C@@H](O)[C@H](N)C[C@H](N)[C@H]3O[C@H]3O[C@H](CN)[C@@H](O)[C@H](O)[C@H]3N)[C@H](O)[C@@H]2O[C@H]2O[C@@H](CN)[C@@H](O)[C@H](O)[C@H]2N)C(=O)Cn2cc(C)c(=O)[nH]c2=O)CC(N)=O)c(=O)[nH]c1=O` came in with a Kd of 130 nM.

In test [4], `CC(=O)N(CCNC(=O)CSCCCCCCSC[C@H]1O[C@@H](O[C@@H]2[C@@H](O)[C@H](N)C[C@H](N)[C@H]2O[C@H]2O[C@H](CN)[C@@H](O)[C@H](O)[C@H]2N)[C@H](O)[C@@H]1O[C@H]1O[C@@H](CN)[C@@H](O)[C@H](O)[C@H]1N)CC(=O)NCCN(CC(N)=O)C(=O)Cn1cc(C)c(=O)[nH]c1=O` yielded a Kd of 270 nM.

`NC[C@@H]1O[C@H](O[C@H]2[C@@H](O)[C@H](O[C@@H]3[C@@H](O)[C@H](N)C[C@H](N)[C@H]3O[C@H]3O[C@H](CN)[C@@H](O)[C@H](O)[C@H]3N)O[C@@H]2CSCCCCCCSCC(=O)NCCN(CC(=O)NCCN(CC(N)=O)C(=O)Cn2ccc(N)nc2=O)C(=O)Cn2cnc3c(O)nc(N)nc32)[C@H](N)[C@@H](O)[C@@H]1O` displayed a Kd in test [4] of 240 nM.

Consider `Cc1cn(CC(=O)N(CCNC(=O)CN(CCNC(=O)CSCCCCCCSC[C@H]2O[C@@H](O[C@@H]3[C@@H](O)[C@H](N)C[C@H](N)[C@H]3O[C@H]3O[C@H](CN)[C@@H](O)[C@H](O)[C@H]3N)[C@H](O)[C@@H]2O[C@H]2O[C@@H](CN)[C@@H](O)[C@H](O)[C@H]2N)C(=O)Cn2cnc3c(N)ncnc32)CC(N)=O)c(=O)[nH]c1=O`, for which, in test [4], the Kd turned out to be 250 nM.

In test [4], `NC[C@@H]1O[C@H](O[C@H]2[C@@H](O)[C@H](O[C@@H]3[C@@H](O)[C@H](N)C[C@H](N)[C@H]3O[C@H]3O[C@H](CN)[C@@H](O)[C@H](O)[C@H]3N)O[C@@H]2CSCCCCCCSCC(=O)NCCN(CC(=O)NCCN(CC(N)=O)C(=O)Cn2cnc3c(N)ncnc32)C(=O)Cn2cnc3c(O)nc(N)nc32)[C@H](N)[C@@H](O)[C@@H]1O` showed a Kd of 200 nM.

As for `NC[C@@H]1O[C@H](O[C@H]2[C@@H](O)[C@H](O[C@@H]3[C@@H](O)[C@H](N)C[C@H](N)[C@H]3O[C@H]3O[C@H](CN)[C@@H](O)[C@H](O)[C@H]3N)O[C@@H]2CSCCNc2c3ccccc3nc3ccccc23)[C@H](N)[C@@H](O)[C@@H]1O`, the IC50 came to 500 nM in test [3] and 9800 nM in test [5].

On to `NC[C@@H]1O[C@H](O[C@H]2[C@@H](O)[C@H](O[C@@H]3[C@@H](O)[C@H](N)C[C@H](N)[C@H]3O[C@H]3O[C@H](CN)[C@@H](O)[C@H](O)[C@H]3N)O[C@@H]2CSCCCCCCSCC(=O)NCCN(CC(=O)NCCN(CC(N)=O)C(=O)Cn2cnc3c(O)nc(N)nc32)C(=O)Cn2cnc3c(O)nc(N)nc32)[C@H](N)[C@@H](O)[C@@H]1O`, for which the Ratio in test [1] is 1.4; in test [2] it was 7. The equilibrium dissociation constant (Kd) at tRNA was found to be 210 nM; in test [4] it was 30 nM. Also, the IC50 in test [3] was determined as 32000 nM; in test [5], 45000 nM.

The Kd is the free concentration of one partner at which half of the binding sites on the other are occupied at equilibrium, for simple one-to-one binding. Read a high Kd as lower affinity. The IC50 is the concentration that inhibits the measured activity by half.
